These results are taken from patent publication US20260176627A1, “DUAL-RNA-GUIDED, SPLIT-PEGRNA RECORDER FOR MOLECULAR INTERACTION” (University of Washington, priority 2022, published 2026).

Molecules are shown by their SMILES.

In the experiment the target is T1, PYL-MCP and LambdaN-ABI (Arabidopsis thaliana, UniProt Q8VZS8).
T1 construct: expressed in transfected cells; host or cells: HEK293T
Briefly: Split-pegRNA recording of abscisic acid (ABA)-induced dimerization of PYL-MCP and LambdaN-ABI. The class given is cell-based. The following applies: PYL-ABI pair, abscisic acid added to cell culture. From the text:
FIG. 3. Recording protein-protein interaction and small molecule exposure using Split-pegRNA recorders. a-b. Design of Split-pegRNA recorder with protein adaptors to record protein-protein interaction (a) and exposure to small molecule (b). c. Normalized editing efficiency of different pairs of constructs tagged with MCP and LambdaN adaptors. Editing efficiencies are scaled (“normalized”) to positive editing control of CTT insertion to HEK3 locus by epegRNA (“eCTT control”). In MCP-LambdaN condition, a single protein-expression construct with MCP tethered with LambdaN was transfected instead of a pair of protein-expression constructs. […]
In the past 30 years, several chemicals have been identified as critical signaling molecules for promoting protein-protein interactions^8. We reasoned that the exposure of these “molecular glue” small molecules to cells can be recorded into the genome using specifically engineered split-pegRNA recorders. […]
Sequencing reads from Illumina MiSeq™ and NextSeq™ platforms are first demultiplexed using BCL2fastq software (Illumina). […] Editing efficiencies were calculated using pattern-matching software such as Regular Expression (package REGEX) in Python, counting correct amplicon reads with or without intended edits (CTT insertion to HEK3 locus^1).

T1 sequence (Q8VZS8 other isoform, or with tags, fused parts or gaps): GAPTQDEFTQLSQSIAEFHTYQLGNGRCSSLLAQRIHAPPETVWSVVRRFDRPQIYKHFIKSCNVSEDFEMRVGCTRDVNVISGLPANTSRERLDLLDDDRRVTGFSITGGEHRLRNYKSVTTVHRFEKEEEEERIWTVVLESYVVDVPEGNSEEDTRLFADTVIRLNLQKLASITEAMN
T1 sequence (P49597 other isoform, or with tags, fused parts or gaps D143A, further chain): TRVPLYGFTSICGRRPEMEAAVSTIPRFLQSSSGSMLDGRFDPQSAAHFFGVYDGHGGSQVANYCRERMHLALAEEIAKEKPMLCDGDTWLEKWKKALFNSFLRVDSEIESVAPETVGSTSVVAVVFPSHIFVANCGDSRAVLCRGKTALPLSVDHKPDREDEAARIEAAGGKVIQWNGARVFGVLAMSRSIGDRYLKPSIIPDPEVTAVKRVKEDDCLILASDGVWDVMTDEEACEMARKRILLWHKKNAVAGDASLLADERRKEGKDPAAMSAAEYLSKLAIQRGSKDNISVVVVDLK

As to `CC1=CC(=O)CC(C)(C)[C@@]1(O)/C=C/C(C)=C\C(=O)O` [Abscisic acid], the “change in editing efficiency on addition of small molecule” value is given as “strong increase in the editing efficiency”.
